# Measurements as given in patent US4861878A, “1H-pyrido-(2,3-b) (1,4)-thiazines” (Bayer Aktiengesellschaft, priority 1985, dated 1989).
# pIC50: −log10 of the molar value.
# How the values were obtained:
# [1] = target: T1, lipoxygenase (Rattus norvegicus, UniProt P12527); test: LTB4 release from rat polymorphonuclear leucocytes (PMNL) after calcium ionophore A 23187, by HPLC (lipoxygenase inhibition); assay type: cell-based, rat (Wistar)
# T1 construct: Polymorphonuclear leucocytes from rats (PMNL) were obtained from the peritoneal space in Wistar rats; endogenous in cells; host or cells: peritoneal polymorphonuclear leucocytes of Wistar rats (elicited with sodium caseinate)
# T1 sequence (P12527 1-673): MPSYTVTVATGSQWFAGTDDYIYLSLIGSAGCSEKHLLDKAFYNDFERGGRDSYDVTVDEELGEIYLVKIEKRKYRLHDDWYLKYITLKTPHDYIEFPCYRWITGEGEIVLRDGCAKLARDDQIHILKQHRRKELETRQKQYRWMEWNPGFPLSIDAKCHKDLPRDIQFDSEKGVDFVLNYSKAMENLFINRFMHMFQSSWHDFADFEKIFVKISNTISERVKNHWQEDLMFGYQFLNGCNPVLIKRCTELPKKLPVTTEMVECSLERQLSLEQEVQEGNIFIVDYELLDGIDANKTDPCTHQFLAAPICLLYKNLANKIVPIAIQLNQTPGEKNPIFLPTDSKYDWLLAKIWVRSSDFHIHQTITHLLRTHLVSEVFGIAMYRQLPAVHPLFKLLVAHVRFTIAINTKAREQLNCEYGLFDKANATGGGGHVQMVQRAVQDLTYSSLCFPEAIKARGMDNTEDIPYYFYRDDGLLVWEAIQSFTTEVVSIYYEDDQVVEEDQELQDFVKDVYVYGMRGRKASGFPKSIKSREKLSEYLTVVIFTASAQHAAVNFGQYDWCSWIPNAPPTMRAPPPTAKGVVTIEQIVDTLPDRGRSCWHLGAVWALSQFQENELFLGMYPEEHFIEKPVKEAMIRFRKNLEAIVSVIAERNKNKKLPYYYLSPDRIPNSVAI
# Method: The release of LTB4 on polymorphonuclear granulocytes after addition of substances and calcium ionophor was determined by means of HPLC as a measure of the lipoxygenase inhibition.
# The combined ether phases were washed with 4 ml of water (double distilled), dried while gassing with nitrogen and taken up in 80 μl of methanol.
# 20 μl of each of the samples thus prepared were applied to a pre-packed column (Nucleosil, type 7.5 C 18M 4×25 mm) and chromatographed at a flow rate of 1 ml/min (Kontron pump system 600), methanol, H2 O and acetic acid (75:25:0.01) being used as the mobile phase. Detection was at 280 nm (Uvicon 720 LC). The formation of the metabolite was quantified with the aid of the internal standard PG B2 as a quotient of the area integrals (Shimadzu C-R1B) of LTB4 to PGB2 and an inhibition was determined as a percentage of the controls.
# [2] = tested on: leucocyte migration; test: Inhibition of leucocyte migration, small sponge impregnated with active compound under the skin on the backs of rats; assay type: in vivo; settings: rat, local, 10 mg/rat, impregnated sponge under skin of back
# Excerpt: The 1H-pyrido-[2,3-b][1,4]-thiazines according to the invention also have an in vivo action.
# The action of a 1H-pyrido-[2,3-b][1,4]-thiazine after local administration by insertion of a small sponge impregnated with active compound under the skin on the backs of rats may be mentioned as examples.
Structure (SMILES),"Inhibition of leukotriene B4 biosynthesis, % inhibition ([1]; at 1·10^-5 (M/1), rat PMNL)",pIC50 [1],Inhibition of Leucocyte migration (control = 0%) [2]
O=C1CCCC2=C1Sc1ncccc1N2,42%,–,–
"CCOC(=O)C1=CNc2cccnc2S1 [Example 1, 3-Ethoxycarbonyl-1H-pyrido[2,3-b][1,4]-thiazine]",–,6.34,50%
CCOC(=O)C1=CN(CC#N)c2cccnc2S1 [Example 19],–,5.59,–
CCCCOC(=O)C1=CNc2cccnc2S1 [Example 4],–,7.26,–
COC(=O)C1=CNc2cccnc2S1 [Example 2],–,5.30,–
